Consider 36 compounds from patent publication US7022736B2, “Enzyme inhibitors” (Istituto Di Ricerche Di Biologia Molecolare P Angeletti SpA, priority 1998, dated 2006).

In one test the target is T1, HCV RdRp (NS5B RNA-dependent RNA polymerase) (Hepatitis C virus genotype 1b, UniProt P26663).
T1 construct: The HCV NS5B protein is the viral RdRp; made in house; host or cells: insect cells infected with recombinant baculovirus
T1 sequence (P26663 2420-3010): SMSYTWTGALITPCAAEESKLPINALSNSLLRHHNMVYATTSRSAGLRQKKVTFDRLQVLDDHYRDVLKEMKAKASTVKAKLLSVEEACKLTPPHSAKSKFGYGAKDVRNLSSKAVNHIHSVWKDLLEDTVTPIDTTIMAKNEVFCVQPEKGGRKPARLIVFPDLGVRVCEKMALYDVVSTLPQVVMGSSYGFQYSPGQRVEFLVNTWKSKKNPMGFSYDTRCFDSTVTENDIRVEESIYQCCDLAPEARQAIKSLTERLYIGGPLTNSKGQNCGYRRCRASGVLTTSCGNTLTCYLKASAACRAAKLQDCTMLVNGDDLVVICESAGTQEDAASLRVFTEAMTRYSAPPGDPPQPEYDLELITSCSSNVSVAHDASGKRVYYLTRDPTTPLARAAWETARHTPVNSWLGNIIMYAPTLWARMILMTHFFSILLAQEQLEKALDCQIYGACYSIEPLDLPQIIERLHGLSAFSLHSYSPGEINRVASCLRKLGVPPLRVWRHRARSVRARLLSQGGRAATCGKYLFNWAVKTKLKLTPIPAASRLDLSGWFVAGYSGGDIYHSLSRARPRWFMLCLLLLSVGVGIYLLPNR
As to the kind of experiment: Inhibition of hepatitis C virus RdRp (poly(A)/oligo(U), [3H]UTP incorporation). The test is classed as biochemical. The settings on record: Tables I-VIII; 20 nM NS5B, 1 hour at 22° C.; read-out: IC 50 (μM), HCV-polymerase. Here is the method:
In initial tests, the compounds were tested to see if they were effective as inhibitors of the RNA-dependent RNA polymerase (RdRp) of hepatitis C virus (HCV). The HCV NS5B protein is the viral RdRp; compounds capable of interfering with the activity of this enzyme are thus expected to block viral replication.
Test for Inhibition of Hepatatis C Virus RdRp
WO96/37619 describes the production of recombinant HCV RdRp from insect cells infected with recombinant baculovirus encoding the enzyme. […] The reference describes a polymerisation assay using poly (A) as a template and oligo (U) as a primer. Incorporation of tritiated UTP is quantified by measuring acid-insoluble radioactivity. The present inventors have employed this assay to screen the various compounds described above as inhibitors of HCV RdRp and other virally encoded polymerases.
Incorporation of radioactive UMP was measured as follows. The standard reaction (100 μl) was carried out in a buffer containing 20 mM tris/HCl pH 7.5, 5 mM MgCl2, 1 mM DTT, 50 mM NaCl, 1 mM EDTA, 2 OU Rnasin (Promega), 0.05% Triton X-100, 1 μCi[^3H] UTP (40 Ci/mmol,NEN), 10 μM UTP and 10 μg/ml poly (A). Oligo (U)12 (1 μg/ml, Genset) was added as a primer. The final NSSB enzyme concentration was 20 nM. After 1 hour incubation at 22° C. the reaction was stopped by adding 100 μl of 20% TCA and applying samples to DE81 filters. The filters were washed thoroughly with 5% TCA containing 1M Na2HPO4/NaH2PO4, pH 7.0, rinsed with water and then ethanol, air dried, and the filter-bound radioactivity was measured in the scintillation counter. By carrying out the reaction in the presence of various concentrations of each of the compounds set out above it was possible to determine IC50 values for each compound with the formula: % residual activity=100/(1+[I]/IC50)^s where [I] is the inhibitor concentration and “s” is the slope of the inhibition curve. Test for Inhibition of Hepatitis B Virus Polymerase
As for `COc1cccc(OC)c1C(=O)C=C(O)C(=O)O` [Example 172], the IC50 is over 50 µM.
As to `N#CCCCn1cccc1C(=O)C=C(O)C(=O)O` [Example 173], the IC50 came to 21 µM.
For `N#CCCCCn1cccc1C(=O)C=C(O)C(=O)O` [Example 174], the IC50 worked out at 13.4 µM.
Still for that read-out and setting: under `O=C(O)C(O)=CC(=O)c1cccn1CC1CCCC1` [Example 175] stands 25 µM.
With `O=C(O)C(O)=CC(=O)c1cccn1Cc1ccccc1` [Example 176], the IC50 was found to be 29 µM.
Take `O=C(O)C(O)=CC(=O)c1cccn1-c1ccc(F)cc1` [Example 177]: the IC50 stood at 25 µM.
Consider `O=C(O)C(O)=CC(=O)c1cccn1CC1CCCCC1` [Example 178], for which the IC50 is 17.9 µM.
`O=C(O)C(O)=CC(=O)c1cccn1Cc1ccc(O)cc1` [Example 179]: the IC50 stood at 12.8 µM.
Same read-out and setting: as for `O=C(O)C(O)=CC(=O)c1cccn1Cc1ccc(F)cc1` [Example 180], the figure is 93 µM; as for `O=C(O)C(O)=CC(=O)c1cccn1Cc1cccc(F)c1` [Example 181], 30 µM.
Consider `O=C(O)C(O)=CC(=O)c1cccn1Cc1ccccc1F` [Example 182], for which the IC50 amounted to 30 µM.
With `N#Cc1ccc(Cn2cccc2C(=O)C=C(O)C(=O)O)cc1` [Example 183], the IC50 came out at 32 µM.
For `N#Cc1ccccc1Cn1cccc1C(=O)C=C(O)C(=O)O` [Example 184], the IC50 was 6.7 µM.
`O=C(O)C(O)=CC(=O)c1cccn1Cc1ccccc1Cl` [Example 186]: the IC50 was determined as 24 µM.
Still for that read-out and setting: as for `O=C(O)C(O)=CC(=O)c1cccn1CCCc1ccc(F)cc1` [Example 187], the figure is 36 µM; as for `O=C(O)C(O)=CC(=O)c1cccn1Cc1ccc2ccccc2c1` [Example 188], 12.7 µM; as for `O=C(O)C(O)=CC(=O)c1cccn1CCCCOc1ccccc1` [Example 189], 28 µM.
On to `O=C(O)C(O)=CC(=O)c1cc(I)cn1Cc1ccc(F)cc1` [Example 190], for which the IC50 was 18 µM.
In the case of `Cc1ccsc1C(=O)C=C(O)C(=O)O` [Example 191], the IC50 was 10 µM.
With `Cc1cc(C)c(C(=O)C=C(O)C(=O)O)s1` [Example 192], the IC50 amounted to 8.2 µM.
With `O=C(O)C(O)=CC(=O)c1ccc(Cl)s1` [Example 193], the IC50 was 12 µM.
For `O=C(O)C(O)=CC(=O)c1sccc1Cl` [Example 194], the IC50 was found to be 16 µM.
With `O=C(O)C(O)=CC(=O)c1ccc(N2CCCC2)s1` [Example 195], the IC50 worked out at 11.1 µM.
Turning to `O=C(O)C(O)=CC(=O)c1cc(-c2cccnc2)cs1` [Example 197], the IC50 came to 11 µM.
For the compound `O=C(O)C(O)=CC(=O)c1ccc(Br)s1` [Example 198], the IC50 came to 7.9 µM.
Still for that read-out and setting: under `O=C(O)C(O)=CC(=O)c1sccc1Br` [Example 199] stands 17 µM; under `O=C(O)C(O)=CC(=O)c1ccc(N2CCCCC2)s1` [Example 200], 8.2 µM; under `Cc1csc2sc(C(=O)C=C(O)C(=O)O)c(C)c12` [Example 201], 20 µM.
For `C=CCN(CC=C)c1ccc(C(=O)C=C(O)C(=O)O)s1` [Example 203], the IC50 amounted to 19.8 µM.
Regarding `O=C(O)C(O)=CC(=O)c1cc2c(s1)-c1ccccc1CC2` [Example 204], the IC50 worked out at 11 µM.
For the compound `O=C(O)C(O)=CC(=O)c1sccc1Cc1cccc(F)c1` [Example 207], the IC50 turned out to be 9.9 µM.
`O=C(O)C(O)=CC(=O)c1sccc1Cc1ccc(F)cc1` [Example 208]: the IC50 worked out at 11.6 µM.
With `O=C(O)C(O)=CC(=O)c1sccc1Sc1ccccc1` [Example 209], the IC50 came to 12.6 µM.
As to `O=C(O)C(O)=CC(=O)c1ccc(Cc2cccc(Cl)c2)s1` [Example 211], the IC50 came to 82 µM.
For the compound `O=C(O)C(O)=CC(=O)c1sccc1Cc1cccc(Cl)c1` [Example 212], the IC50 was determined as 7.5 µM.
Take `O=C(O)C(O)=CC(=O)c1sccc1Sc1cccc(F)c1` [Example 213]: the IC50 turned out to be 5.9 µM.

Staying with this test, now noted: Tables IXa-IXc; unit inferred; read-out: HCV (IC50).
`O=C(O)C(O)=CC(=O)c1cccn1Cc1ccc(O)cc1` [Example 179]: the IC50 came out at 12.8 µM.
Take `O=C(O)C(O)=CC(=O)c1cc(I)cn1Cc1ccc(F)cc1` [Example 190]: the IC50 worked out at 18 µM.
For `Cc1cc(C)c(C(=O)C=C(O)C(=O)O)s1` [Example 192], the IC50 amounted to 8.2 µM.
Same read-out and setting: under `O=C(O)C(O)=CC(=O)c1ccc(Br)s1` [Example 198] stands 7.9 µM.
